Assay results: US10023563B2, “Cyclic compounds substituted by a condensed ring system” (BASF SE, priority 2014, dated 2018)

How the values were obtained:
Assay type in all cases: in vivo
[1] = system: Diamond Back Moth (Plutella xylostella); assay: Diamond back moth leaf-dip test; settings: cabbage leaves dipped, 3rd instar larvae, 72 hours after treatment, read-out: mortality in comparison with untreated controls
Procedure: B.1 Diamond Back Moth (Plutella xylostella)
The active compound was dissolved at the desired concentration in a mixture of 1:1 (vol:vol) distilled water:aceteone. Surfactant (Kinetic HV) was added at a rate of 0.01% (vol/vol). The test solution was prepared at the day of use.
Leaves of cabbage were dipped in test solution and air-dried. Treated leaves were placed in petri dishes lined with moist filter paper and inoculated with ten 3rd instar larvae. Mortality was recorded 72 hours after treatment. Feeding damages were also recorded using a scale of 0-100%.

[2] = system: Green Peach Aphid (Myzus persicae); assay: Green peach aphid systemic test on artificial diet; settings: 72 h, adult aphids on treated artificial diet, 3 days, read-out: mortality in comparison with untreated controls
From the text: B.2 Green Peach Aphid (Myzus persicae)
For evaluating control of green peach aphid (Myzus persicae) through systemic means the test unit consisted of 96-well-microtiter plates containing liquid artificial diet under an artificial membrane.
The compounds were formulated using a solution containing 75% v/v water and 25% v/v DMSO. Different concentrations of formulated compounds were pipetted into the aphid diet, using a custom built pipetter, at two replications.
After application, 5-8 adult aphids were placed on the artificial membrane inside the microtiter plate wells. The aphids were then allowed to suck on the treated aphid diet and incubated at about 23±1° C. and about 50±5% relative humidity for 3 days. Aphid mortality and fecundity was then visually assessed.

[3] = system: Vetch Aphid (Megoura viciae); assay: Vetch aphid broad bean leaf disk test; settings: foliar, 120 h, sprayed leaf disks, adult aphids, 5 days, read-out: mortality in comparison with untreated controls
Procedure: B.3 Vetch Aphid (Megoura viciae)
For evaluating control of vetch aphid (Megoura viciae) through contact or systemic means the test unit consisted of 24-well-microtiter plates containing broad bean leaf disks.
The compounds were formulated using a solution containing 75% v/v water and 25% v/v DMSO. Different concentrations of formulated compounds were sprayed onto the leaf disks at 2.5 μl, using a custom built micro atomizer, at two replications.
After application, the leaf disks were air-dried and 5-8 adult aphids placed on the leaf disks inside the microtiter plate wells. The aphids were then allowed to suck on the treated leaf disks and incubated at about 23±1° C. and about 50±5% relative humidity for 5 days. Aphid mortality and fecundity was then visually assessed.

[4] = system: Tobacco Budworm (Heliothis virescens); assay: Tobacco budworm insect diet microtiter test; settings: 120 h, egg and larval mortality on sprayed insect diet, 5 days, read-out: mortality in comparison with untreated controls
Procedure: B.4 Tobacco Budworm (Heliothis virescens)
For evaluating control of tobacco budworm (Heliothis virescens) the test unit consisted of 96-well-microtiter plates containing an insect diet and 15-25 H. virescens eggs.
The compounds were formulated using a solution containing 75% v/v water and 25% v/v DMSO. Different concentrations of formulated compounds were sprayed onto the insect diet at 10 μl, using a custom built micro atomizer, at two replications.
(§1) After application, microtiter plates were incubated at about 28±1° C. and about 80±5% relative humidity for 5 days. Egg and larval mortality was then visually assessed.

[5] = system: Boll Weevil (Anthonomus grandis); assay: Boll weevil insect diet microtiter test; settings: 120 h, egg and larval mortality on sprayed insect diet, 5 days, read-out: mortality in comparison with untreated controls
Procedure: B.5 Boll Weevil (Anthonomus grandis)
For evaluating control of boll weevil (Anthonomus grandis) the test unit consisted of 96-well-microtiter plates containing an insect diet and 5-10 A. grandis eggs.
(§2) The compounds were formulated using a solution containing 75% v/v water and 25% v/v DMSO. Different concentrations of formulated compounds were sprayed onto the insect diet at 5 μl, using a custom built micro atomizer, at two replications.
After application, microtiter plates were incubated at about 25±1° C. and about 75±5% relative humidity for 5 days. Egg and larval mortality was then visually assessed.

[6] = system: Mediterranean Fruitfly (Ceratitis capitata); assay: Mediterranean fruitfly insect diet microtiter test; settings: 120 h, egg and larval mortality on sprayed insect diet, 5 days, read-out: mortality in comparison with untreated controls
Procedure: B.6 Mediterranean Fruitfly (Ceratitis capitata)
as §2, with “For evaluating control of Mediterranean fruitfly (Ceratitis capitata) the test unit consisted of microtiter plates containing an insect diet and 50-80 C. capitata eggs. The” for “The”
as §1

[7] = system: Orchid Thrips (Dichromothrips Corbetti); assay: Orchid thrips floral-immersion test; settings: dipped orchid petals, adult thrips, 72 hours after treatment, read-out: mortality in comparison with untreated controls
Procedure: B.7 Orchid Thrips (Dichromothrips Corbetti)
Dichromothrips corbetti adults used for bioassay were obtained from a colony maintained continuously under laboratory conditions. For testing purposes, the test compound is diluted in a 1:1 mixture of acetone:water (vol:vol), plus Kinetic HV at a rate of 0.01% v/v.
Thrips potency of each compound was evaluated by using a floral-immersion technique. All petals of individual, intact orchid flowers were dipped into treatment solution and allowed to dry in Petri dishes. Treated petals were placed into individual resealable plastic along with about 20 adult thrips. All test arenas were held under continuous light and a temperature of about 28° C. for duration of the assay. After 3 days, the numbers of live thrips were counted on each petal. The percent mortality was recorded 72 hours after treatment.

[8] = system: Rice Green Leafhopper (Nephotettix virescens); assay: Rice green leafhopper sprayed rice seedling test; settings: sprayed potted rice seedlings, adults, after 72 hours, read-out: mortality in comparison with untreated controls
Procedure: B.8 Rice Green Leafhopper (Nephotettix virescens)
Rice seedlings were cleaned and washed 24 hours before spraying. The active compounds were formulated in 1:1 acetone:water (vol:vol), and 0.01% vol/vol surfactant (Kinetic HV) was added. Potted rice seedlings were sprayed with 5-6 ml test solution, air dried, covered with Mylar cages and inoculated with 10 adults. Treated rice plants were kept at about 28-29° C. and relative humidity of about 50-60%. Percent mortality was recorded after 72 hours.

[9] = system: Southern Armyworm (Spodoptera eridania); assay: Southern armyworm sprayed lima bean test; settings: foliar, 96 h, sprayed lima bean foliage, larvae, 4 days after treatment, read-out: mortality in comparison with untreated controls
Procedure: B.10 Southern Armyworm (Spodoptera eridania)
The active compounds were formulated in cyclohexanone as a 10,000 ppm solution supplied in tubes. The tubes were inserted into an automated electrostatic sprayer equipped with an atomizing nozzle and they served as stock solutions for which lower dilutions were made in 50% acetone:50% water (v/v). A nonionic surfactant (Kinetic®) was included in the solution at a volume of 0.01% (v/v).
Lima bean plants (variety Sieva) were grown 2 plants to a pot and selected for treatment at the 1st true leaf stage. Test solutions were sprayed onto the foliage by an automated electrostatic plant sprayer equipped with an atomizing spray nozzle. The plants were dried in the sprayer fume hood and then removed from the sprayer. Each pot was placed into perforated plastic bags with a zip closure. About 10 to 11 armyworm larvae were placed into the bag and the bags zipped closed. Test plants were maintained in a growth room at about 25° C. and about 20-40% relative humidity for 4 days, avoiding direct exposure to fluorescent light (24 hour photoperiod) to prevent trapping of heat inside the bags. Mortality and reduced feeding were assessed 4 days after treatment, compared to untreated control plants.

O=C(CNC(=O)c1ccc(C2=CSC(c3cc(Cl)cc(Cl)c3)(C(F)(F)F)C2)c2c1CCC2)NCC(F)(F)F (stereo not drawn) [Compound 1-3, 7-[2-(3,5-Dichlorophenyl)-2-(trifluoromethyl)-3H-thiophen-4-yl]-N-[2-oxo-2-(2,2,2-trifluoroethylamino)ethyl]indane-4-carboxamide]
≥ 75%: mortality at 300 ppm [1] | mortality at 2500 ppm [2] | mortality at 2500 ppm [3] | mortality at 2500 ppm [4] | mortality at 2500 ppm [5] | mortality at 2500 ppm [6] | mortality at 300 ppm [7] | mortality at 2500 ppm [8] | mortality at 10 ppm [9]
